Publication PMC8026785, “The pharmacokinetics of [^18F]UCB-H revisited in the healthy non-human primate brain” (EJNMMI Research, 2021)

Legend:
SV2A [1] = test system: SV2A; set-up: method as in PMID 30084043, PMID 31728839; conditions: cited from earlier work
SV2A [2] = target: T1, SV2A (Macaca fascicularis, UniProt Q4R4X3); assay: Displacement PET studies of [^18F]UCB-H; assay type: in vivo, cynomolgus monkeys (Macaca fascicularis)
T1 construct: The current study evaluates [^18F]UCB-H pharmacokinetics in healthy NHPs; from tissue; host or cells: brain of living healthy cynomolgus monkeys (in vivo PET)
Description: All four non-human primates (NHP) underwent a 2-h (2 h) test and retest PET scan; two NHP underwent an additional 4-h (4 h) retest PET scan. Three NHP underwent one 4-h (4 h) displacement PET scan. Arterial blood sampling was performed during test and retest scans with PET imaging spaced by at least 3 weeks between each scan. To this end, the femoral artery opposite to the saphenous vein used for radioligand injection was cannulated. For the 2-h (2 h) scans, we collected in total 28 blood samples of 1 mL: 16 samples during the first 5 min followed by […] every 5 min and […] every 10 min. For the 4 h scans, we collected an additional 6 samples every 20 min during the last two hours (34 samples in total). Larger samples (2 – 3 mL) were collected at 5, 15, 30, 60, 90, 120 min (2 h) and at 180, 240 min (4 h) for metabolite analysis. Displacement of [^18F]UCB-H was done by intravenous (IV) administration 90 min after [^18F]UCB-H injection of a bolus of 30 mg/kg LEV, or of 80 µg/kg (≈250 nmol/kg) or 5 mg/kg (≈15 µmol/kg) of cold [^19F]-UCB-H. Full experimental design of all NHP is outlined in Additional file 1: Table 1.
Solvents and LEV (C8H14N2O2; MM 170.21 g/mol) were obtained at Sigma-Aldrich® (France), and [^19F]-UCB-H (C16H12F4N2O; MM 324.28 g/mol) was synthesised as previously described. Injectable solutions of [^19F]-UCB-H for displacement studies were prepared with a mixture of Tetrahydrofuran (THF), Médialipide® and glucose at 2.5% as previously described. LEV was dissolved in a glucose solution of 2.5% to reach a concentration of 90 mg/mL.
PET image analysis was performed using PMOD software version 3.8 (PMOD Technologies Ltd., Zurich, Suisse). After individual co-registration of PET-MR images, a cynomolgus atlas published by Ballanger and coworkers was normalized to PET images to extract time activity curves in different brain regions. Volumes of interest (VOI) were cerebral white matter (16.7 cm^3), striatum (0.24 cm^3), thalamus (0.89 cm^3), cerebellum (3.83 cm^3), frontal—(2.50 cm^3), parietal—(5.35 cm^3), and temporal (8.22 cm^3) cortex, and whole brain (72.2 cm^3) as a composite region of all regions in the atlas. [^18F]UCB-H pharmacokinetics were evaluated by analyzing the time activity curves of the test- and retest scans using 1- and 2-tissue compartment models (unconstrained and constrained with global K1/k2 coupled fit across all regions, further referred to as 2TCM and 2TCM-c), and Logan graphical analysis with a fixed t* at 60 min [33] using the arterial plasma input function corrected for radio-metabolites to derive the volume of distribution in each region. Percentage standard error (%SE) was estimated from the theoretical parameter covariance matrix. Only reliable estimates (%SE less than 25%) were included in the current analyses. For the three drug studies, percent displacement of the total activity in the whole brain was estimated relative to an average baseline constructed from the two 4 h baseline studies. Briefly, Standardized Uptake Value (SUV) time activity curves (TACs) were calculated for the two baseline and the three displacement studies. Then, each curve was normalized to the SUV at t = 90 min, corresponding to the timeframe immediately before the administration of the drugs in the displacement studies. Baseline curves were averaged and the percent displacement of total activity was calculated as (baseline-displacement)/baseline at a given time post drug administration (see “Results”).

SV2A [3] = target: SV2A; set-up: method as in PMID 31728839; conditions: human brain; read-out: in vitro Ki; cited from earlier work
SV2A [4] = target: SV2A; set-up: method as in PMID 26848175; conditions: NHP; read-out: in vivo KD; cited from earlier work

T1 sequence (Q4R4X3 whole entry): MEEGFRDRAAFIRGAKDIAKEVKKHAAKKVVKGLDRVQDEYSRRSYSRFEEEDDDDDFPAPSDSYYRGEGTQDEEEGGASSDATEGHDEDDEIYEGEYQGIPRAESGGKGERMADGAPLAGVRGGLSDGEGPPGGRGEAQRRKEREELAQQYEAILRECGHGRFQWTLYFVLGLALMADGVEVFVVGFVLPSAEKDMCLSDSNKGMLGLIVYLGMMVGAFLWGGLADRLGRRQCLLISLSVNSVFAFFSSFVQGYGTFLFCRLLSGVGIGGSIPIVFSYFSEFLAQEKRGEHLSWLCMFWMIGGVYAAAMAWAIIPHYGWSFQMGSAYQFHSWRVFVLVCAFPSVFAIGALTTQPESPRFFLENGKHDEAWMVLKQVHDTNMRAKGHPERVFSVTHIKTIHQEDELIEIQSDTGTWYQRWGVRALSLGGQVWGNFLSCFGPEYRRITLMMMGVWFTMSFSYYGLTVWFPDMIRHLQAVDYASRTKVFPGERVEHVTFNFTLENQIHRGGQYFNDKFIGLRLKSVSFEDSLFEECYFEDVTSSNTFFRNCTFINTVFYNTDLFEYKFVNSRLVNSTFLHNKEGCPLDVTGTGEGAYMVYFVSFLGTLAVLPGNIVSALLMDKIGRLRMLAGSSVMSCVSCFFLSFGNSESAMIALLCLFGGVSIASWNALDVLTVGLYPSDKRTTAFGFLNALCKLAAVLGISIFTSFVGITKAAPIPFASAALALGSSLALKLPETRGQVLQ

SMILES: Cc1cnccc1CN1CC(c2cc(F)cc([18F])c2)CC1=O (stereo not drawn) [[^18F]MNI-1128]
- affinity (SV2A [1]): low affinity

SMILES: CC[C@@H](C(N)=O)N1CCCC1=O [LEV, levetiracetam, reference compound]
- displacement of [^18F]UCB-H total uptake (SV2A [2]; 30 mg/kg i.v. at 90 min, estimated 150 min (2.5 h) after injection): ~ 40%
- receptor occupancy at 30 mg/kg (SV2A [2]; cynomolgus monkey, iv, read-out: SV2A occupancy): 75 to 80%

SMILES: Cc1cnccc1CN1C[C@@H](c2cc(F)cc([18F])c2)CC1=O [[^18F]MNI-1126]
- affinity (SV2A [1]): high affinity

SMILES: O=C1CC(c2cc(F)c(F)c(F)c2)CN1Cc1ccncc1F (stereo not drawn) [[^19F]UCB-H]
- displacement of [^18F]UCB-H total uptake (SV2A [2]; 5 mg/kg i.v. at 90 min, estimated 35 min after injection of cold compound): 50%
- SV2A occupancy expected (SV2A [2]; 5 mg/kg, KD 30 nM): > 98%
- maximum free concentration in brain (SV2A [2]; after 5.0 mg/kg, based on brain uptake curves and fND ~6%): ~2.5 µM
- Ki (SV2A [3]): 0.009 µM
- Kd (SV2A [4]): 0.03 µM
